What was measured:
K-RAS G12C = target: T1, K-RAS G12C (Homo sapiens, UniProt P01116, G12C); experiment: Compound depletion assay, K-RAS G12C; format: binding; conditions: G12C protein 20 μM, compound 8 μM, 25° C.
T1 construct: His tag; purchased Stratech
Outline: (§1)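 His-tagged K-RAS (20 μM) in 20 mM HEPES pH 7.5, 150 mM NaCl, 1 mM MgCl2 incubated with 8 μM compound (final) at 25 °C with agitation. At 0, 30, 180, 360, 1440 min, samples were acid/acetonitrile-quenched and remaining free compound quantified by LC-MS/MS against propranolol, as percent of time zero.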

K-RAS G12D = target: T2, K-RAS G12D (Homo sapiens, UniProt P01116, G12D); experiment: Compound depletion assay, K-RAS G12D; format: binding; conditions: G12D protein 20 μM, compound 8 μM, 25° C.
T2 construct: His tag; purchased Stratech
T2 sequence (P01116 1-188 isoform P01116-2 G12D): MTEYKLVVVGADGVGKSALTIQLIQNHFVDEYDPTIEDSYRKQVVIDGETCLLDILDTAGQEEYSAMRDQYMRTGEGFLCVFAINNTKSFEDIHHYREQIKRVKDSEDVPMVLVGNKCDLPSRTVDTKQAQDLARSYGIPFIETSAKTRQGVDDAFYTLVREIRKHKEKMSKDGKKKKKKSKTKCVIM
Outline: as §1

T1 sequence (P01116 1-188 isoform P01116-2 G12C): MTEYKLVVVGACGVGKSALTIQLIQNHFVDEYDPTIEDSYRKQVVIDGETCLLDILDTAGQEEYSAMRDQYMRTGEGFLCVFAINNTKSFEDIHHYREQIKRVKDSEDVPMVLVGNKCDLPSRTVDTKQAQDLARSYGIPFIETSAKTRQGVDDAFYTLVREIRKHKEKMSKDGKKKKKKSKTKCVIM

| SMILES | 30 min Category (compound remaining at timepoint) (K-RAS G12C) | 3 hr Category (compound remaining at timepoint) (K-RAS G12C) | 6 hr Category (compound remaining at timepoint) (K-RAS G12C) | 30 min Category (compound remaining at timepoint) (K-RAS G12D) | 3 hr Category (compound remaining at timepoint) (K-RAS G12D) | 6 hr Category (compound remaining at timepoint) (K-RAS G12D) | 24 hr Category (compound remaining at timepoint) (K-RAS G12C) | 24 hr Category (compound remaining at timepoint) (K-RAS G12D) |
| --- | --- | --- | --- | --- | --- | --- | --- | --- |
| C=CC(=O)N1CCN(c2cc(C(=O)Nc3cc(O)cc4ccccc34)nc(NC[C@@H]3CCCN3CCO)n2)C[C@@H]1CC#N [Example 46, 6-[(3S)-3-(cyanomethyl)-4-prop-2-enoyl-piperazin-1-yl]-2-[[(2S)-1-(2-hydroxyethyl)pyrrolidin-2-yl]methylamino]-N-(3-hydroxy-1-naphthyl)pyrimidine-4-carboxamide] | B (30%-70% compound remaining at timepoint) | C (≤30% compound remaining at timepoint) | C (≤30% compound remaining at timepoint) | A (≥70% compound remaining at timepoint) | A (≥70% compound remaining at timepoint) | A (≥70% compound remaining at timepoint) | – | – |
| C=CC(=O)N1CCN(c2cc(C(=O)Nc3cc(O)cc4ccccc34)nc(-c3ccccc3)n2)C[C@@H]1CC#N [Example 24, 6-[(3S)-3-(cyanomethyl)-4-prop-2-enoyl-piperazin-1-yl]-N-(3-hydroxy-1-naphthyl)-2-phenyl-pyrimidine-4-carboxamide] | A (≥70% compound remaining at timepoint) | A (≥70% compound remaining at timepoint) | A (≥70% compound remaining at timepoint) | A (≥70% compound remaining at timepoint) | A (≥70% compound remaining at timepoint) | A (≥70% compound remaining at timepoint) | – | – |
| C=CC(=O)N1C[C@@H]2C[C@H]1CN2c1cc(C(=O)Nc2cc(O)cc3ccccc23)nc(OC[C@@H]2CCCN2C)n1 [Example 23, N-(3-hydroxy-1-naphthyl)-2-[[(2S)-1-methylpyrrolidin-2-yl]methoxy]-6-[(1S,4S)-2-prop-2-enoyl-2,5-diazabicyclo[2.2.1]heptan-5-yl]pyrimidine-4-carboxamide] | A (≥70% compound remaining at timepoint) | A (≥70% compound remaining at timepoint) | A (≥70% compound remaining at timepoint) | A (≥70% compound remaining at timepoint) | A (≥70% compound remaining at timepoint) | A (≥70% compound remaining at timepoint) | – | – |
| C=CC(=O)N1CCN(c2cc(C(=O)Nc3cc(O)cc4ccccc34)nc(OCc3cnn(C)c3)n2)C[C@@H]1CC#N [Example 42, 6-[(3S)-3-(cyanomethyl)-4-prop-2-enoyl-piperazin-1-yl]-N-(3-hydroxy-1-naphthyl)-2-[(1-methylpyrazol-4-yl)methoxy]pyrimidine-4-carboxamide] | B (30%-70% compound remaining at timepoint) | C (≤30% compound remaining at timepoint) | C (≤30% compound remaining at timepoint) | A (≥70% compound remaining at timepoint) | A (≥70% compound remaining at timepoint) | A (≥70% compound remaining at timepoint) | – | – |
| C=CC(=O)N1CCN(c2cc(C(=O)Nc3cc(O)cc4ccccc34)nc(NCCC3CCCN3C)n2)C[C@@H]1CC#N (stereo partly drawn) [Example 30, 6-[(3S)-3-(cyanomethyl)-4-prop-2-enoyl-piperazin-1-yl]-N-(3-hydroxy-1-naphthyl)-2-[2-(1-methylpyrrolidin-2-yl)ethylamino]pyrimidine-4-carboxamide] | B (30%-70% compound remaining at timepoint) | C (≤30% compound remaining at timepoint) | C (≤30% compound remaining at timepoint) | A (≥70% compound remaining at timepoint) | A (≥70% compound remaining at timepoint) | A (≥70% compound remaining at timepoint) | – | – |
| C=CC(=O)N1CCN(c2cc(C(=O)Nc3cccc4ccccc34)nc(-c3ccnn3C)n2)CC1 [Example 11, 2-(2-methylpyrazol-3-yl)-N-(1-naphthyl)-6-(4-prop-2-enoylpiperazin-1-yl)pyrimidine-4-carboxamide] | A (≥70% compound remaining at timepoint) | A (≥70% compound remaining at timepoint) | – | – | A (≥70% compound remaining at timepoint) | – | A (≥70% compound remaining at timepoint) | A (≥70% compound remaining at timepoint) |
| C=CC(=O)N1CCN(c2cc(C(=O)Nc3cc(O)cc4ccccc34)nc(OC[C@@H]3CCCN3C)n2)CC1 [Example 03, N-(3-hydroxy-1-naphthyl)-2-[[(2S)-1-methylpyrrolidin-2-yl]methoxy]-6-(4-prop-2-enoylpiperazin-1-yl)pyrimidine-4-carboxamide] | B (30%-70% compound remaining at timepoint) | C (≤30% compound remaining at timepoint) | C (≤30% compound remaining at timepoint) | – | A (≥70% compound remaining at timepoint) | – | C (≤30% compound remaining at timepoint) | A (≥70% compound remaining at timepoint) |
